The numbers were not newly measured in patent US20260317295A1, “NAV1.8 INHIBITORS, PREPARATION METHOD THEREFOR AND USE THEREOF” (SHANGHAI INSTITUTE OF MATERIA MEDICA, CHINESE ACADEMY OF …, priority 2023, published 2026), which cites them from elsewhere.

The test system of data set [1] is Nav1.8. The conditions noted are these: rodents.
Data set [2] relates to Nav1.8. As to conditions: rat, STZ-induced diabetic neuropathy, intraperitoneal or intraplantar.
The test system of data set [3] is Nav1.8. The conditions noted are these: L7-1.8TG transgenic mice.

SMILES strings stand for the structures.

In the case of `COc1cc(NC(=O)c2ccc(-c3ccc(Cl)cc3)o2)cc(OC)c1` [Compound A-803467], the pain responses result in data set [1] is reported as “effectively alleviate pain responses”. For the same compound, the pain behavioral responses entry in data set [2] is given as “dose-dependently alleviate the animals' pain behavioral responses”.

In the case of `CNC(=O)c1ccc(-c2cc(Cl)cc(Cl)c2Cl)c(N)n1` [PF-01247324], the MS behaviors result in data set [3] is “alleviate the MS behaviors”.
